In PubChem BioAssay AID2060487 (Molecular Pharmacology Branch, DTP, NCI, 2025):

System: 997537-175-T-J1-PDC complex spheroid viability
Test: Anticancer human tumor 997537-175-T-J1-PDC patient-derived colon adenocarcinoma cell line growth inhibition [GQUAD]
Conditions: for IC50: curve of first compound; for viability, T/C: stronger effect = lower value
Summary of the method: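 Multi-cell-type spheroids of tumor cells with HUVEC and mesenchymal stem cells, treated with drug combinations. Concentrations descend in half-log steps from near clinical Cmax, or from 10 microM where Cmax is unknown; viability read-out.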

[1] = second compound 0.0316 µM, first compound 0.0316 µM
[2] = second compound 0.0316 µM, first compound 0.316 µM
[3] = second compound 0.1 µM, first compound 0.0316 µM
[4] = second compound 0.1 µM, first compound 0.316 µM
[5] = second compound 0.316 µM, first compound 0.0316 µM
[6] = second compound 0.316 µM, first compound 0.316 µM
[7] = second compound 1 µM, first compound 0.0316 µM
[8] = second compound 1 µM, first compound 0.316 µM
[9] = second compound 3.16 µM, first compound 0.0316 µM
[10] = second compound 3.16 µM, first compound 0.316 µM
[11] = second compound 10 µM, first compound 0.0316 µM
[12] = second compound 10 µM, first compound 0.316 µM
[13] = second compound 0.0316 µM, first compound 0.1 µM
[14] = second compound 0.0316 µM, first compound 1 µM
[15] = second compound 0.0316 µM, first compound 3.16 µM
[16] = second compound 0.0316 µM, first compound 10 µM
[17] = second compound 0.1 µM, first compound 0.1 µM
[18] = second compound 0.1 µM, first compound 1 µM
[19] = second compound 0.1 µM, first compound 3.16 µM
[20] = second compound 0.1 µM, first compound 10 µM
[21] = second compound 0.316 µM, first compound 0.1 µM
[22] = second compound 0.316 µM, first compound 1 µM
[23] = second compound 0.316 µM, first compound 3.16 µM
[24] = second compound 0.316 µM, first compound 10 µM
[25] = second compound 1 µM, first compound 0.1 µM
[26] = second compound 1 µM, first compound 1 µM
[27] = second compound 1 µM, first compound 3.16 µM
[28] = second compound 1 µM, first compound 10 µM
[29] = second compound 3.16 µM, first compound 0.1 µM
[30] = second compound 3.16 µM, first compound 1 µM
[31] = second compound 3.16 µM, first compound 3.16 µM
[32] = second compound 3.16 µM, first compound 10 µM
[33] = second compound 10 µM, first compound 0.1 µM
[34] = second compound 10 µM, first compound 1 µM
[35] = second compound 10 µM, first compound 3.16 µM
[36] = second compound 10 µM, first compound 10 µM
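Note: spheroids exposed to the agents for 7 days.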
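Throughout, for viability, T/C: 100% = DMSO vehicle control viability.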

## Cc1[nH]c2ccccc2c1CCNCc1ccc(/C=C/C(=O)NO)cc1 + Cc1[nH]c2ccc(F)cc2c1-c1nc2c3cccnc3c3ncccc3c2[nH]1
Second compound 0.0316 µM
  IC50: > 316 nM
Second compound 0.1 µM
  IC50: > 316 nM
Second compound 0.316 µM
  IC50: > 316 nM
Second compound 1 µM
  IC50: > 316 nM
Second compound 3.16 µM
  IC50: > 316 nM
Second compound 10 µM
  IC50: > 316 nM
Second compound 0.0316 µM, first compound 0.000999 µM
  viability, T/C: 100%
Second compound 0.0316 µM, first compound 0.00316 µM
  viability, T/C: 103%
Second compound 0.0316 µM, first compound 0.00999 µM
  viability, T/C: 100%
[1]
  viability, T/C: 106%
Second compound 0.0316 µM, first compound 0.0999 µM
  viability, T/C: 88.8%
[2]
  viability, T/C: 93.2%
Second compound 0.1 µM, first compound 0.000999 µM
  viability, T/C: 89.3%
Second compound 0.1 µM, first compound 0.00316 µM
  viability, T/C: 108%
Second compound 0.1 µM, first compound 0.00999 µM
  viability, T/C: 92.8%
[3]
  viability, T/C: 104%
Second compound 0.1 µM, first compound 0.0999 µM
  viability, T/C: 93.4%
[4]
  viability, T/C: 95.5%
Second compound 0.316 µM, first compound 0.000999 µM
  viability, T/C: 92.1%
Second compound 0.316 µM, first compound 0.00316 µM
  viability, T/C: 111%
Second compound 0.316 µM, first compound 0.00999 µM
  viability, T/C: 92.4%
[5]
  viability, T/C: 91%
Second compound 0.316 µM, first compound 0.0999 µM
  viability, T/C: 105%
[6]
  viability, T/C: 97.1%
Second compound 1 µM, first compound 0.000999 µM
  viability, T/C: 98.4%
Second compound 1 µM, first compound 0.00316 µM
  viability, T/C: 95.1%
Second compound 1 µM, first compound 0.00999 µM
  viability, T/C: 101%
[7]
  viability, T/C: 90.6%
Second compound 1 µM, first compound 0.0999 µM
  viability, T/C: 90.5%
[8]
  viability, T/C: 84.8%
Second compound 3.16 µM, first compound 0.000999 µM
  viability, T/C: 93.2%
Second compound 3.16 µM, first compound 0.00316 µM
  viability, T/C: 84%
Second compound 3.16 µM, first compound 0.00999 µM
  viability, T/C: 82.1%
[9]
  viability, T/C: 96.3%
Second compound 3.16 µM, first compound 0.0999 µM
  viability, T/C: 77.6%
[10]
  viability, T/C: 80.7%
Second compound 10 µM, first compound 0.000999 µM
  viability, T/C: 83.2%
Second compound 10 µM, first compound 0.00316 µM
  viability, T/C: 88.7%
Second compound 10 µM, first compound 0.00999 µM
  viability, T/C: 73.2%
[11]
  viability, T/C: 78.6%
Second compound 10 µM, first compound 0.0999 µM
  viability, T/C: 84.6%
[12]
  viability, T/C: 69.5%

## O=C(NO)c1cnc(N2CCN(S(=O)(=O)c3ccc4ccccc4c3)CC2)nc1 + Cc1[nH]c2ccc(F)cc2c1-c1nc2c3cccnc3c3ncccc3c2[nH]1
Second compound 0.0316 µM
  IC50: 89.2 nM
Second compound 0.1 µM
  IC50: 134 nM
Second compound 0.316 µM
  IC50: 91.5 nM
Second compound 1 µM
  IC50: 87.8 nM
Second compound 3.16 µM
  IC50: 43 nM
Second compound 10 µM
  IC50: < 31.6 nM
[1]
  viability, T/C: 93.7%
[13]
  viability, T/C: 45.1%
[2]
  viability, T/C: 19.4%
[14]
  viability, T/C: 35.4%
[15]
  viability, T/C: 39.2%
[16]
  viability, T/C: 21.7%
[3]
  viability, T/C: 73.6%
[17]
  viability, T/C: 56.2%
[4]
  viability, T/C: 31.2%
[18]
  viability, T/C: 32.7%
[19]
  viability, T/C: 20.9%
[20]
  viability, T/C: 42.4%
[5]
  viability, T/C: 78.8%
[21]
  viability, T/C: 43.4%
[6]
  viability, T/C: 52.3%
[22]
  viability, T/C: 31.8%
[23]
  viability, T/C: 42.2%
[24]
  viability, T/C: 34.8%
[7]
  viability, T/C: 74.4%
[25]
  viability, T/C: 44.5%
[8]
  viability, T/C: 37.6%
[26]
  viability, T/C: 29.4%
[27]
  viability, T/C: 23.6%
[28]
  viability, T/C: 26.2%
[9]
  viability, T/C: 55.9%
[29]
  viability, T/C: 33.5%
[10]
  viability, T/C: 30.5%
[30]
  viability, T/C: 24.8%
[31]
  viability, T/C: 25.6%
[32]
  viability, T/C: 19.4%
[11]
  viability, T/C: 45.1%
[33]
  viability, T/C: 16.1%
[12]
  viability, T/C: 10.4%
[34]
  viability, T/C: 19.8%
[35]
  viability, T/C: 16.6%
[36]
  viability, T/C: 18%

## CC1COCCN1c1cc(C2(S(C)(=N)=O)CC2)nc(-c2ccnc3[nH]ccc23)n1 (stereo not drawn) + Cc1cnc(CNC(=O)c2c(=O)c3ccc(N4CCCN(C)CC4)nc3n3c2sc2ccccc23)cn1
Second compound 0.0316 µM
  IC50: 3670 nM
Second compound 0.1 µM
  IC50: 8640 nM
Second compound 0.316 µM
  IC50: > 10000 nM
Second compound 1 µM
  IC50: > 10000 nM
Second compound 3.16 µM
  IC50: > 10000 nM
Second compound 10 µM
  IC50: > 10000 nM
[1]
  viability, T/C: 105%
[13]
  viability, T/C: 88.9%
[2]
  viability, T/C: 84.8%
[14]
  viability, T/C: 56.8%
[15]
  viability, T/C: 54.9%
[16]
  viability, T/C: 41.7%
[3]
  viability, T/C: 91.4%
[17]
  viability, T/C: 90.4%
[4]
  viability, T/C: 83.9%
[18]
  viability, T/C: 65.9%
[19]
  viability, T/C: 72.3%
[20]
  viability, T/C: 45.2%
[5]
  viability, T/C: 89.5%
[21]
  viability, T/C: 92.8%
[6]
  viability, T/C: 80.6%
[22]
  viability, T/C: 60.3%
[23]
  viability, T/C: 55.4%
[24]
  viability, T/C: 53.4%
[7]
  viability, T/C: 86.7%
[25]
  viability, T/C: 82.5%
[8]
  viability, T/C: 69.6%
[26]
  viability, T/C: 65.8%
[27]
  viability, T/C: 84.7%
[28]
  viability, T/C: 83.7%
[9]
  viability, T/C: 65.4%
[29]
  viability, T/C: 83.7%
[10]
  viability, T/C: 104%
[30]
  viability, T/C: 78.2%
[31]
  viability, T/C: 59.3%
[32]
  viability, T/C: 69%
[11]
  viability, T/C: 74.8%
[33]
  viability, T/C: 71.4%
[12]
  viability, T/C: 91.8%
[34]
  viability, T/C: 68.3%
[35]
  viability, T/C: 85.4%
[36]
  viability, T/C: 85.8%

## COc1ccc([C@@H](O)c2cc(-c3ncnc4cc(N5CCOCC5)ccc34)c(F)cc2Cl)nn1 + Cc1cnc(CNC(=O)c2c(=O)c3ccc(N4CCCN(C)CC4)nc3n3c2sc2ccccc23)cn1
Second compound 0.0316 µM
  IC50: > 10000 nM
Second compound 0.1 µM
  IC50: > 10000 nM
Second compound 0.316 µM
  IC50: > 10000 nM
Second compound 1 µM
  IC50: 9860 nM
Second compound 3.16 µM
  IC50: > 10000 nM
Second compound 10 µM
  IC50: > 10000 nM
[1]
  viability, T/C: 102%
[13]
  viability, T/C: 93.6%
[2]
  viability, T/C: 100%
[14]
  viability, T/C: 63.3%
[15]
  viability, T/C: 81.1%
[16]
  viability, T/C: 63.9%
[3]
  viability, T/C: 97.5%
[17]
  viability, T/C: 94.7%
[4]
  viability, T/C: 73.9%
[18]
  viability, T/C: 84.7%
[19]
  viability, T/C: 77.2%
[20]
  viability, T/C: 86.9%
[5]
  viability, T/C: 87.3%
[21]
  viability, T/C: 106%
[6]
  viability, T/C: 107%
[22]
  viability, T/C: 94.8%
[23]
  viability, T/C: 113%
[24]
  viability, T/C: 65.2%
[7]
  viability, T/C: 82.3%
[25]
  viability, T/C: 87.5%
[8]
  viability, T/C: 89.3%
[26]
  viability, T/C: 87.8%
[27]
  viability, T/C: 98.1%
[28]
  viability, T/C: 49.5%
[9]
  viability, T/C: 81.7%
[29]
  viability, T/C: 88.8%
[10]
  viability, T/C: 98.1%
[30]
  viability, T/C: 107%
[31]
  viability, T/C: 98.2%
[32]
  viability, T/C: 71.2%
[11]
  viability, T/C: 85.5%
[33]
  viability, T/C: 75.9%
[12]
  viability, T/C: 86.3%
[34]
  viability, T/C: 117%
[35]
  viability, T/C: 86.9%
[36]
  viability, T/C: 72.8%
